Read-outs that look alike come from different tables or passages of the source.
Tests used:
[1] = target: T1, Rhizoctonia solani laccase isozyme 4 (rsl4; RsL), wild type (pJiWa59), SEQ ID NO:25 (Thanatephorus cucumeris, UniProt Q02081); test: Syringaldazine and ABTS oxidase kinetics (Km, kcat), RsL wt; format: biochemical; settings: 8 mM MES-NaOH buffer, pH 5.3, spectroscopic
T1 sequence (Q02081 21-531): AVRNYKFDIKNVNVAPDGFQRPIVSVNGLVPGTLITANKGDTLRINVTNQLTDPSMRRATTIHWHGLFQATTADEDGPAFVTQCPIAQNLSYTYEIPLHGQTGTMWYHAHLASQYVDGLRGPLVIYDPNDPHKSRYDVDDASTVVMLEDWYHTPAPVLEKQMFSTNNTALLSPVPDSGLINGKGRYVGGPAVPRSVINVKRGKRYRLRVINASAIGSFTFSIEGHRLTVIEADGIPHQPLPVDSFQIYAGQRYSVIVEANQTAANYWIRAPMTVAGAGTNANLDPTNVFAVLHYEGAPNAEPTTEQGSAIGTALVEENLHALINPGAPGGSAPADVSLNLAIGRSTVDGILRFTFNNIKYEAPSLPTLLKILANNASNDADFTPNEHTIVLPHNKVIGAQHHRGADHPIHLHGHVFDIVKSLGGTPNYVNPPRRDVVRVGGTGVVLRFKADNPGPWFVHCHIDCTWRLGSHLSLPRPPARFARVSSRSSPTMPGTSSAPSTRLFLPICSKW
Experimental: (§1) The molecular weights of the mature laccases are used to calculate both extinction coefficients and turnover numbers. The molecular weights are determined from the deduced amino acid sequences of the DNA sequences (FIG. 6: SEQ ID NOS:24 and 25, and FIG. 7: SEQ ID NOS:26 and 27). Protein concentrations (expressed as subunits) are measured based on the extinction coefficients determined by quantitative amino acid analysis.
(§2) Km and kcat are obtained from the initial rate (v), enzyme concentration (E), and substrate concentration (S) in accordance to the equation v=kcat ES/(Km +S) by non-linear regression fitting using the Prizm program (GraphPad, San Diego, Calif.). […] The O2 concentration in air-saturated buffer solution is assumed as the same in plain water (0.28 mM).

[2] = target: Myceliophthora thermophila laccase (MtL) mutant "M" L513F (pRaMB17M) (Thermothelomyces thermophilus, UniProt G2QG31, form not given/L556F); format: biochemical
Experimental: as §1, §2

[3] = target: Myceliophthora thermophila laccase (MtL) mutant "T" V509L/S510E/G511A (pBANe22T) (Thermothelomyces thermophilus, UniProt G2QG31, G554A/S553E/V552L); format: biochemical
Experimental: as §1, §2

[4] = target: Rhizoctonia solani laccase isozyme 4 (RsL) mutant "M" L470F (pJiWa86) (Thanatephorus cucumeris, UniProt Q02081); format: biochemical
Experimental: as §1, §2

[5] = target: Rhizoctonia solani laccase isozyme 4 (RsL) mutant "T" L466V/E467S/A468G (pJiWa85) (Thanatephorus cucumeris, UniProt Q02081); format: biochemical
Experimental: as §1, §2

[6] = target: T2, Myceliophthora thermophila laccase (lcc-1; MtL), wild type (pRaMB17), SEQ ID NO:27 (Thermothelomyces thermophilus, UniProt G2QG31); test: Syringaldazine and ABTS oxidase kinetics (Km, kcat), MtL wt; settings: 8 mM MES-NaOH buffer, pH 5.3, spectroscopic
T2 sequence (G2QG31 with tags, fused parts or gaps INS108NSII/R109G/T291C/S323N/P398A/P430A/T522S/A533S/H588R): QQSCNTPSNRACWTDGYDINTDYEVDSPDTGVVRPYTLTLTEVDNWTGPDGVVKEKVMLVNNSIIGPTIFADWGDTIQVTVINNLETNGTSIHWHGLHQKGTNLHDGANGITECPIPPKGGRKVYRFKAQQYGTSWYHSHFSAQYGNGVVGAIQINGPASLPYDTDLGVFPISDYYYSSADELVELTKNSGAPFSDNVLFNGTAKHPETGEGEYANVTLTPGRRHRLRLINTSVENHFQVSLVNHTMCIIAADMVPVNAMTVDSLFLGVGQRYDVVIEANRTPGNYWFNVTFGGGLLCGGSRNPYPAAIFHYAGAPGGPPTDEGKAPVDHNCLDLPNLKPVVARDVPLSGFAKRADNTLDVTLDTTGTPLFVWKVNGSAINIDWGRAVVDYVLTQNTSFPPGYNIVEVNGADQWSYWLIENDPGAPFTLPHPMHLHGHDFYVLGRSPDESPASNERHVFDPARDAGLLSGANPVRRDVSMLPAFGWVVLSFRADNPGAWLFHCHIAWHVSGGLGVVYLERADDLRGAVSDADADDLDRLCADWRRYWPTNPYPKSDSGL
Experimental: as §1, §2

[7] = substrate: CCn1c(=NN=c2sc3cc(S(=O)(=O)O)ccc3n2CC)sc2cc(S(=O)(=O)O)ccc21; test: purified protein, by the assay type; settings: 8 mM MES-NaOH buffer, pH 5.3, spectroscopic
[8] = substrate: COc1cc(C=NN=Cc2cc(OC)c(O)c(OC)c2)cc(OC)c1O; test: purified protein, by the assay type; settings: 8 mM MES-NaOH buffer, pH 5.3, spectroscopic
[9] = 8 mM MES-NaOH buffer, pH 5.3, spectroscopic
[10] = read-out: Km (ABTS), 8 mM MES-NaOH buffer, pH 5.3, spectroscopic
[11] = read-out: Km (SGZ), 8 mM MES-NaOH buffer, pH 5.3, spectroscopic

CCn1c(=NN=c2sc3cc(S(=O)(=O)O)ccc3n2CC)sc2cc(S(=O)(=O)O)ccc21 [ABTS, 2,2'-azinobis(3-ethylbenzthiazoline-6-sulfonic acid)]
kcat (ABTS) [1]: 2500 ± 100 min⁻¹ | kcat (ABTS) [2, 9]: 1800 ± 100 min⁻¹ | Km [2, 10]: 43 ± 3 µM | kcat (ABTS) [3, 9]: 530 ± 20 min⁻¹ | kcat (ABTS) [4, 9]: 760 ± 30 min⁻¹ | Km [4, 10]: 125 ± 13 µM | kcat (ABTS) [5, 9]: 20 ± 1 min⁻¹ | Km [5, 10]: 60 ± 4 µM | kcat (ABTS) [6]: 3800 ± 300 min⁻¹

COc1cc(C=NN=Cc2cc(OC)c(O)c(OC)c2)cc(OC)c1O [SGZ, syringaldazine]
kcat (SGZ) [1]: 550 ± 40 min⁻¹ | kcat (SGZ) [2, 9]: 3300 ± 100 min⁻¹ | Km [2, 11]: 1.8 ± 0.2 µM | kcat (SGZ) [3, 9]: 360 ± 20 min⁻¹ | Km [3, 11]: 900 ± 200 nM | kcat (SGZ) [4, 9]: 255 ± 11 min⁻¹ | Km [4, 11]: 35 ± 4 µM | kcat (SGZ) [5, 9]: 1.1 ± 0.1 min⁻¹ | Km [5, 11]: 3.9 ± 0.3 µM

B1: Myceliophthora thermophila laccase (lcc-1; MtL), wild type (pRaMB17), SEQ ID NO:27 (Thermothelomyces thermophilus ATCC 42464) (protein)
chain: QQSCNTPSNRACWTDGYDINTDYEVDSPDTGVVRPYTLTLTEVDNWTGPDGVVKEKVMLVNNSIIGPTIFADWGDTIQVTVINNLETNGTSIHWHGLHQKGTNLHDGANGITECPIPPKGGRKVYRFKAQQYGTSWYHSHFSAQYGNGVVGAIQINGPASLPYDTDLGVFPISDYYYSSADELVELTKNSGAPFSDNVLFNGTAKHPETGEGEYANVTLTPGRRHRLRLINTSVENHFQVSLVNHTMCIIAADMVPVNAMTVDSLFLGVGQRYDVVIEANRTPGNYWFNVTFGGGLLCGGSRNPYPAAIFHYAGAPGGPPTDEGKAPVDHNCLDLPNLKPVVARDVPLSGFAKRADNTLDVTLDTTGTPLFVWKVNGSAINIDWGRAVVDYVLTQNTSFPPGYNIVEVNGADQWSYWLIENDPGAPFTLPHPMHLHGHDFYVLGRSPDESPASNERHVFDPARDAGLLSGANPVRRDVSMLPAFGWVVLSFRADNPGAWLFHCHIAWHVSGGLGVVYLERADDLRGAVSDADADDLDRLCADWRRYWPTNPYPKSDSGL
Km ([7]; other: MtL wt): 110 ± 20 µM | Km ([8]; other: MtL wt): 1.4 ± 0.2 µM

B2: Rhizoctonia solani laccase isozyme 4 (rsl4; RsL), wild type (pJiWa59), SEQ ID NO:25 (Thanatephorus cucumeris) (protein)
chain: AVRNYKFDIKNVNVAPDGFQRPIVSVNGLVPGTLITANKGDTLRINVTNQLTDPSMRRATTIHWHGLFQATTADEDGPAFVTQCPIAQNLSYTYEIPLHGQTGTMWYHAHLASQYVDGLRGPLVIYDPNDPHKSRYDVDDASTVVMLEDWYHTPAPVLEKQMFSTNNTALLSPVPDSGLINGKGRYVGGPAVPRSVINVKRGKRYRLRVINASAIGSFTFSIEGHRLTVIEADGIPHQPLPVDSFQIYAGQRYSVIVEANQTAANYWIRAPMTVAGAGTNANLDPTNVFAVLHYEGAPNAEPTTEQGSAIGTALVEENLHALINPGAPGGSAPADVSLNLAIGRSTVDGILRFTFNNIKYEAPSLPTLLKILANNASNDADFTPNEHTIVLPHNKVIGAQHHRGADHPIHLHGHVFDIVKSLGGTPNYVNPPRRDVVRVGGTGVVLRFKADNPGPWFVHCHIDCTWRLGSHLSLPRPPARFARVSSRSSPTMPGTSSAPSTRLFLPICSKW
Km ([7]; other: RsL wt): 52 ± 6 µM | Km ([8]; other: RsL wt): 28 ± 4 µM

Source: US5972670A, “Blue copper oxidase mutants with enhanced activity” (priority 1998, dated 1999)
